From patent US8580811B2 (Ligand Pharmaceuticals Incorporated, priority 2005, dated 2013) come the findings set out here.

pKi: −log10 of the molar value. Where two headings read alike, the source gives them in different places.

In general, pKi refers to the negative decadic logarithm of the Ki, by convention in mol/L.

For this assay, the target named is T1, human AR (Homo sapiens, UniProt P10275).
T1 construct: expressed in transfected cells; host or cells: COS-1 cells
T1 sequence (P10275 1-920): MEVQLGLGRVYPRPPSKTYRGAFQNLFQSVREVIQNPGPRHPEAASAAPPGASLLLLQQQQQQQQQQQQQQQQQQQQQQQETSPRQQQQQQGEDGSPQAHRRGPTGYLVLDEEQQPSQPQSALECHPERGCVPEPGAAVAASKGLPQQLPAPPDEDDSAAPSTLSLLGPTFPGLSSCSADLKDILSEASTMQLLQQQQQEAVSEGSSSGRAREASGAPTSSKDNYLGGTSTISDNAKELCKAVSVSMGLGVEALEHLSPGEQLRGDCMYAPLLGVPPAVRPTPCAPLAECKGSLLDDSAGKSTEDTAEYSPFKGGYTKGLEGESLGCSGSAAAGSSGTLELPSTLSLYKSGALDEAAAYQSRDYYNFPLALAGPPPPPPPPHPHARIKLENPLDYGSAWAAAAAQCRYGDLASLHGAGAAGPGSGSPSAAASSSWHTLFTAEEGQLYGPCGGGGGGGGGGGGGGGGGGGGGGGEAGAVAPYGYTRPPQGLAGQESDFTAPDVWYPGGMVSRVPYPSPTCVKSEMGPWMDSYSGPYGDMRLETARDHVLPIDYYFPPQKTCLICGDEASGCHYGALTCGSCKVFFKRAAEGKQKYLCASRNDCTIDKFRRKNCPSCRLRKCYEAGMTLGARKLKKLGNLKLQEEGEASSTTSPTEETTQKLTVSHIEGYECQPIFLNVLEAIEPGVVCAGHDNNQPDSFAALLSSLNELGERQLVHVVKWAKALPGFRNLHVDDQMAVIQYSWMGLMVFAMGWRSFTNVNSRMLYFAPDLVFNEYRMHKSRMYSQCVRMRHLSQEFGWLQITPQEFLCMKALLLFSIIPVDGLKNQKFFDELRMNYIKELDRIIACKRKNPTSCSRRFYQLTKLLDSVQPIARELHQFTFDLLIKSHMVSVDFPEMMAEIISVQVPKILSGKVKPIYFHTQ
Kind of assay: IR Binding Assay: whole cell competitive binding of test compounds against 3H-DHT in COS-1 cells transfected with pRShAR. A digest of the protocol: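 COS-1 cells transfected with pRShAR plus β-Gal reporter, serum-starved 24 h, then exposed to 1 nM ³H-DHT with compounds at 10^−10 to 10^−6 M for 3 h at 37 °C. Bound ³H-DHT counted in lysates, normalized to β-Gal. IC50 from log-logit plot; Ki via Cheng-Prusoff using Kd from Scatchard saturation analysis.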

The mark [1] stands for this setting: competition with 1 nM 3H-DHT, transfected COS-1 cells, 3 h at 37° C., Cheng-Prusoff from IC50, read-out: Ki.

Consider `O=c1cc(Cl)c2c(ccc3[nH]c4c(c32)CCCC4)[nH]1` [Compound 113, 9-Chloro-1,2-tetramethylene-3,6-dihydro-pyrrolo[3,2-f]quinolin-7-one], for which the negative logarithm of the Ki (pKi) is below 8.00.
As to `Cc1c[nH]c2ccc3[nH]c(=O)cc(Cl)c3c12` [Compound 114, 9-Chloro-1-methyl-3,6-dihydro-pyrrolo[3,2-f]quinolin-7-one], the pKi is below 8.00.
For the compound `COc1ccc(-c2[nH]c3ccc4[nH]c(=O)cc(Cl)c4c3c2C)cc1` [Compound 115, 9-Chloro-2-(4-methoxy-phenyl)-1-methyl-3,6-dihydro-pyrrolo[3,2-f]quinolin-7-one], the pKi under setting [1] is below 8.00.
In turn, `Cc1c(-c2ccc(F)cc2)[nH]c2ccc3[nH]c(=O)cc(Cl)c3c12` [Compound 116, 9-Chloro-2-(4-fluorophenyl)-1-methyl-3,6-dihydro-pyrrolo[3,2-f]quinolin-7-one] gave a pKi above 8.30.
For the compound `Cc1c(-c2ccc(F)cc2F)[nH]c2ccc3[nH]c(=O)cc(Cl)c3c12` [Compound 117, 9-Chloro-2-(2,4-difluorophenyl)-1-methyl-3,6-dihydro-pyrrolo[3,2-f]quinolin-7-one], the pKi is above 8.30.
`Cc1c(-c2ccc(Cl)cc2)[nH]c2ccc3[nH]c(=O)cc(Cl)c3c12` [Compound 118, 9-Chloro-2-(4-chlorophenyl)-1-methyl-3,6-dihydro-pyrrolo[3,2-f]quinolin-7-one] had a pKi above 8.30.
Compound `Cc1c(-c2ccccc2F)[nH]c2ccc3[nH]c(=O)cc(Cl)c3c12` [Compound 119, 9-Chloro-2-(2-fluorophenyl)-1-methyl-3,6-dihydro-pyrrolo[3,2-f]quinolin-7-one] had a pKi above 8.30.
Take `Cc1c(-c2cccs2)[nH]c2ccc3[nH]c(=O)cc(Cl)c3c12` [Compound 120, 9-Chloro-1-methyl-2-thien-2-yl-3,6-dihydro-pyrrolo[3,2-f]quinolin-7-one]: under setting [1], the pKi was below 8.00.
As to `CC(=O)c1[nH]c2ccc3[nH]c(=O)cc(Cl)c3c2c1C` [Compound 121, 2-Acetyl-9-chloro-1-methyl-3,6-dihydro-pyrrolo[3,2-f]quinolin-7-one], the pKi under setting [1] is below 8.00.
`Cc1[nH]c2ccc3[nH]c(=O)cc(Cl)c3c2c1CC(=O)O` [Compound 122, (9-Chloro-2-methyl-7-oxo-6,7-dihydro-3H-pyrrolo[3,2-f]quinolin-1-yl)-acetic acid] had a negative-log Ki (pKi) above 8.30.
Still for that read-out and setting: the same measure for `CCc1c(-c2cccs2)[nH]c2ccc3[nH]c(=O)cc(Cl)c3c12` [Compound 123, 9-Chloro-1-ethyl-2-thien-2-yl-3,6-dihydro-pyrrolo[3,2-f]quinolin-7-one]: 8.00 to 8.30.
`CCCc1c(C)[nH]c2ccc3[nH]c(=O)cc(Cl)c3c12` [Compound 124, 9-Chloro-2-methyl-1-propyl-3,6-dihydro-pyrrolo[3,2-f]quinolin-7-one] gave a negative-log Ki (pKi) below 8.00.
For the compound `CCc1c(-c2ccccc2)[nH]c2ccc3[nH]c(=O)cc(Cl)c3c12` [Compound 125, 9-Chloro-1-ethyl-2-phenyl-3,6-dihydro-pyrrolo[3,2-f]quinolin-7-one], under setting [1], the pKi is below 8.00.
Turning to `O=c1cc(Cl)c2c3c(ccc2[nH]1)N(CC(F)(F)F)[C@@H]1CCC[C@H]31` [Compound 162, (+)-9-Chloro-3-(2,2,2-trifluoroethyl)-1,2-trimethylene-1,2,3,6-tetrahydropyrrolo[3,2-f]quinolin-7-one], the negative-log Ki (pKi) was above 8.30.
The compound `O=c1cc(Cl)c2c3c(ccc2[nH]1)N(CC(F)(F)F)[C@H]1CCC[C@@H]31` [Compound 163, (−)-9-Chloro-3-(2,2,2-trifluoroethyl)-1,2-trimethylene-1,2,3,6-tetrahydropyrrolo[3,2-f]-quinolin-7-one] had a pKi below 8.00.
As for `Cc1c(C)n(CC(F)(F)F)c2ccc3[nH]c(=O)cc(Cl)c3c12` [Compound 184, 9-Chloro-1,2-dimethyl-3-(2,2,2-trifluoroethyl)-3,6-dihydro-pyrrolo[3,2-f]quinolin-7-one], the negative-log Ki (pKi) is above 8.30.
Compound `CCc1c(C)n(CC(F)(F)F)c2ccc3[nH]c(=O)cc(Cl)c3c12` [Compound 185, 9-Chloro-1-ethyl-2-methyl-3-(2,2,2-trifluoroethyl)-3,6-dihydro-pyrrolo[3,2-f]quinolin-7-one] had a pKi above 8.30.
In the case of `Cc1cc2c3c(Cl)cc(=O)[nH]c3ccc2n1CC(F)(F)F` [Compound 186, 9-Chloro-2-methyl-3-(2,2,2-trifluoroethyl)-3,6-dihydro-pyrrolo[3,2-f]quinolin-7-one], the negative logarithm of the Ki (pKi) was 8.00 to 8.30.
The compound `Cc1c(-c2ccccc2)n(CC(F)(F)F)c2ccc3[nH]c(=O)cc(Cl)c3c12` [Compound 187, 9-Chloro-1-methyl-2-phenyl-3-(2,2,2-trifluoroethyl)-3,6-dihydro-pyrrolo[3,2-f]quinolin-7-one] gave a pKi above 8.30.
As for `Cc1c(C=O)c2c3c(Cl)cc(=O)[nH]c3ccc2n1Cc1ccccc1` [Compound 188, 3-Benzyl-9-chloro-2-methyl-7-oxo-6,7-dihydro-3H-pyrrolo[3,2-f]quinoline-1-carbaldehyde], the negative-log Ki (pKi) is above 8.30.
For the compound `Cc1c(C)n(CCc2cccs2)c2ccc3[nH]c(=O)cc(Cl)c3c12` [Compound 189, 9-Chloro-1,2-dimethyl-3-(2-thien-2-yl-ethyl)-3,6-dihydro-pyrrolo[3,2-f]quinolin-7-one], the pKi is below 8.00.
On the same count and under the same terms, the same measure for `Cc1c(C)n(CCO)c2ccc3[nH]c(=O)cc(Cl)c3c12` [Compound 190, 9-Chloro-3-(2-hydroxy-ethyl)-1,2-dimethyl-3,6-dihydro-pyrrolo[3,2-f]quinolin-7-one]: below 8.00.
In turn, `Cc1c(C)n(CC(F)F)c2ccc3[nH]c(=O)cc(Cl)c3c12` [Compound 191, 9-Chloro-3-(2,2-difluoroethyl)-1,2-dimethyl-3,6-dihydro-pyrrolo[3,2-f]quinolin-7-one] showed a pKi above 8.30.
Turning to `Cc1c(C=O)c2c3c(Cl)cc(=O)[nH]c3ccc2n1CCO` [Compound 192, 9-Chloro-3-(2-hydroxy-ethyl)-2-methyl-7-oxo-6,7-dihydro-3H-pyrrolo[3,2-f]quinoline-1-carbaldehyde], the negative logarithm of the Ki (pKi) was below 8.00.
`CCn1cc(C)c2c3c(Cl)cc(=O)[nH]c3ccc21` [Compound 193, 9-Chloro-3-ethyl-1-methyl-3,6-dihydro-pyrrolo[3,2-f]quinolin-7-one] had a pKi of 8.00 to 8.30.
The same measure, in the same setting: the same measure for `Cc1c(-c2ccc(F)cc2)n(CC(F)(F)F)c2ccc3[nH]c(=O)cc(Cl)c3c12` [Compound 194, 9-Chloro-2-(4-fluorophenyl)-1-methyl-3-(2,2,2-trifluoroethyl)-3,6-dihydro-pyrrolo[3,2-f]quinolin-7-one]: above 8.30; for `Cc1c(C)n(CC(F)(F)F)c2cc(F)c3[nH]c(=O)cc(Cl)c3c12` [Compound 195, 9-Chloro-1,2-dimethyl-5-fluoro-3-(2,2,2-trifluoroethyl)-3,6-dihydro-pyrrolo[3,2-f]quinolin-7-one]: above 8.30; for `CCn1c(C)c(C)c2c3c(Cl)cc(=O)[nH]c3ccc21` [Compound 196, 9-Chloro-1,2-dimethyl-3-ethyl-3,6-dihydro-pyrrolo[3,2-f]quinolin-7-one]: above 8.30.
`COc1ccc(-c2c(C)c3c4c(Cl)cc(=O)[nH]c4ccc3n2CC(F)(F)F)cc1` [Compound 197, 9-Chloro-2-(4-methoxyphenyl)-1-methyl-3-(2,2,2-trifluoroethyl)-3,6-dihydro-pyrrolo[3,2-f]-quinolin-7-one] had a negative logarithm of the Ki (pKi) above 8.30.
Turning to `Cc1c(-c2cccc(Br)c2)n(CC(F)(F)F)c2ccc3[nH]c(=O)cc(Cl)c3c12` [Compound 198, 2-(3-Bromophenyl)-9-Chloro-1-methyl-3-(2,2,2-trifluoroethyl)-3,6-dihydro-pyrrolo[3,2-f]-quinolin-7-one], the pKi was below 8.00.
Take `Cc1c(-c2ccccc2F)n(CC(F)(F)F)c2ccc3[nH]c(=O)cc(Cl)c3c12` [Compound 199, 9-Chloro-2-(2-fluorophenyl)-1-methyl-3-(2,2,2-trifluoroethyl)-3,6-dihydro-pyrrolo[3,2-f]quinolin-7-one]: the pKi is above 8.30.
`Cc1c(-c2ccc(F)cc2F)n(CC(F)(F)F)c2ccc3[nH]c(=O)cc(Cl)c3c12` [Compound 200, 9-Chloro-2-(2,4-difluorophenyl)-1-methyl-3-(2,2,2-trifluoroethyl)-3,6-dihydro-pyrrolo[3,2-f]-quinolin-7-one] showed a pKi above 8.30.
